Test results published in patent US9840512B2, “Antidiabetic bicyclic compounds” (Merck Sharp & Dohme Corp., priority 2013, dated 2017).
Like-named read-outs stand apart in the source and are kept apart here.

Target: human GPR40 (Homo sapiens, UniProt O14842)
Experiment: Inositol Phosphate Turnover (IP1) Assay 2
Type: cell-based
Set-up: expressed in transfected cells
Method: Human and mouse GPR40 stable cell-lines were generated in CHO cells stably expressing NFAT BLA (Beta-lactamase). A human GPR40 stable cell-line was generated in HEK cells stably expressing the aequorin expressing reporter. The expression plasmids were transfected using lipofectamine (Life Technologies) following manufacturer's instructions. Stable cell-lines were generated following drug selection.
The assay is performed in 384-well format. HEK cells stably expressing human GPR40 are plated at 15,000 cells per well in growth medium (DMEM/10% fetal calf serum). Cell plates are then incubated 16 hours at 37 degrees in a 5% CO2 incubator.
Measurement of Inositol Phosphate Turnover (IP1) is performed using the CisBio IP-One kit (Part number 62IPAPEB). After the 16 hour incubation, the cells are washed with HEPES buffer and 10 ul of stimulation buffer (prepared as described in the kit) is added to each well. In a separate plate, compounds are diluted in DMSO (400-fold over the final concentration in the assay well) and 25 nl is acoustically transferred to the appropriate well in the assay cell plate. The plates are then incubated for 60 minutes at 37 degrees. 10 ul of detection buffer (also prepared as described in the IP-One kit) is added to each well and the plates are incubated for 60 minutes in the dark. The plates are then read in a Perkin Elmer EnVision or equivalent reader able to measure FRET.

[1] = HEK cells stably expressing human GPR40, Table 2, read-out: Human IP1
[2] = HEK cells stably expressing human GPR40, Table 3, read-out: Human IP1 activity

Chain of human GPR40 (O14842 whole entry): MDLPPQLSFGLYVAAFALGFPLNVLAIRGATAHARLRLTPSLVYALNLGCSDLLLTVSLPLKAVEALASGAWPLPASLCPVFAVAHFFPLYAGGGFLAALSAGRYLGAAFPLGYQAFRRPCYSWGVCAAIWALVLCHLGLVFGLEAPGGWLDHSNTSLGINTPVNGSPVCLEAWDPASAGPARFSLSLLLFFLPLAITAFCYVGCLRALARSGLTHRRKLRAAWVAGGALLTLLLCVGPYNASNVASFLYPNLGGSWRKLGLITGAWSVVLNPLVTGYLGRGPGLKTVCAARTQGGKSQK

Row | EC50 [1] | EC50 [2] | Structure (SMILES)
1 | 54 nM |  | COc1ccc(F)c(-c2ccc(C3CCc4ccc([C@@H](CC(=O)O)C5CC5)cc4O3)cc2)c1F (stereo partly shown) [Example 82]
2 |  | 18.8 nM | COc1ccc(F)c(-c2ccc(C3COc4ccc([C@@H](CC(=O)O)C5CC5)cc4O3)cc2)c1 (mixture of isomers) [Example 166]
3 |  | 31 nM | COc1ccc(F)c(-c2ccc(C3COc4ccc([C@@H](CC(=O)O)C5CC5)cc4O3)cc2)c1 (single isomer, unassigned) [Example 167]
4 | 32 nM |  | COc1ccc(F)c(-c2ccc(C3CCc4ccc([C@H](C5CC5)[C@H](C)C(=O)O)cc4O3)cc2OC(F)(F)F)c1 (mixture of isomers) [Example 100]
5 | 0.8 nM |  | COc1ccc(F)c(-c2ccc(C3CCc4ccc([C@H](C5CC5)[C@H](C)C(=O)O)cc4O3)nc2C(OC)C(C)(C)C)c1 (single isomer, unassigned) [Example 135a]
6 | 1390 nM |  | CN1CCOc2cc(-c3ccc(C4CCc5ccc([C@@H](CC(=O)O)C6CC6)cc5O4)c(F)c3)ccc21 (mixture of isomers) [Example 87]
7 | 19 nM |  | COc1ccc(Cl)c(-c2ccc(C3CCc4ccc([C@@H](CC(=O)O)C5CC5)cc4O3)c(F)c2)c1 (mixture of isomers) [Example 92]
8 | 66 nM |  | COc1ccc(F)c(-c2ccc(C3CCc4ccc([C@@H](CC(=O)O)C5CC5)cc4O3)cc2[C@H]2CCCC2(C)C)c1 (mixture of isomers) [Example 102]
9 | 398 nM |  | COc1ccc(F)c(-c2ccc(C3CCc4ccc([C@H](CC(=O)O)C5CCC5)cc4O3)cc2)c1 (single isomer, unassigned) [Example 148, (3R)-3-cyclobutyl-3-((R or S)-(2-(2′-fluoro-5′-methoxy-[1,1′-biphenyl]-4-yl)chroman-7-yl)propanoic acid]
10 |  | 774 nM | CC#C[C@@H](CC(=O)O)c1ccc2c(c1)OCC(c1ccc(-c3cc(OC)ccc3F)cc1)O2 (single isomer, unassigned) [Example 176]
11 | 90 nM |  | COc1ccc(F)c(-c2ccc(C3CCc4ccc(C(C5CCC5)C(C)C(=O)O)cc4O3)cc2)c1 (single isomer, unassigned) [Example 157]
12 |  | 1.8 nM | COc1ccc(F)c(-c2ccc(C3COc4ccc([C@H](C5CC5)[C@H](C)C(=O)O)cc4O3)cc2)c1 (single isomer, unassigned) [Example 173]
13 | 13 nM |  | COc1ccc(F)c(-c2ccc(C3CCc4ccc(C(C)C(C)C(=O)O)cc4O3)cc2)c1 (single isomer, unassigned) [Example 142]
14 |  | 20.3 nM | C[C@H](C(=O)O)[C@H](c1ccc2c(c1)O[C@H](C1CN([C@@H](C)c3cc(C(F)(F)F)ccc3C(F)(F)F)C1)CO2)C1CC1 [Example 190]
15 |  | 8.2 nM | COc1ccc(F)c(-c2ccc([C@@H]3COc4ccc([C@H](C5CC5)[C@H](C)C(=O)O)cc4O3)nc2C(F)(F)F)c1 [Example 164]
16 | 0.9 nM |  | COc1cc(-c2ccc(C3CCc4ccc([C@H](C5CC5)[C@H](C)C(=O)O)cc4O3)cc2C(OC)C2CC2)c(F)cn1 (mixture of isomers) [Example 130]
17 |  | 2 nM | COc1ccc(F)c(-c2ccc(C3COc4ccc([C@H](C5CC5)[C@H](C)C(=O)O)c(F)c4O3)cc2)c1 (single isomer, unassigned) [Example 185]
18 | 3.2 nM |  | COc1ccc(F)c(-c2ccc(C3CCc4ccc([C@H](C5CC5)[C@H](C)C(=O)O)cc4O3)cc2C(OC)C(C)(C)C)c1 (mixture of isomers) [Example 128]
19 | 2.9 nM |  | COc1ccc(F)c(-c2ccc(C3CCc4ccc([C@H](C5CC5)[C@H](C)C(=O)O)cc4O3)nc2)c1 (single isomer, unassigned) [Example 97c]

Row | EC50 [1] | EC50 [2] | Structure (SMILES)
20 | 21 nM |  | C[C@H](C(=O)O)[C@H](c1ccc2c(c1)OC(c1ccc(-c3cc(O)ccc3F)cc1)CC2)C1CC1 (single isomer, unassigned) [Example 67]
21 | 1.2 nM |  | COc1cc(-c2ccc(C3CCc4ccc([C@H](C5CC5)[C@H](C)C(=O)O)cc4O3)c(F)c2)ccn1 (mixture of isomers) [Example 133, (2S,3R)-3-cyclopropyl-3-(2-(2-fluoro-4-(2-methoxypyridin-4-yl)phenyl)-chroman-7-yl)-2-methylpropanoic acid]
22 | 22 nM |  | COc1cccc(-c2ccc(C3CCc4ccc([C@@H](CC(=O)O)C5CC5)cc4O3)cc2)c1 (stereo partly shown) [Example 79]
23 | 0.17 nM |  | COc1cc(-c2ccc(C3CCc4ccc([C@H](C5CC5)[C@H](C)C(=O)O)cc4O3)nc2)c(F)cn1 (single isomer, unassigned) [Example 112a]
24 | 1.9 nM |  | C[C@H](C(=O)O)[C@H](c1ccc2c(c1)OC(c1ccc(-c3cc(O)ccc3F)cc1)CC2)C1CC1 (single isomer, unassigned) [Example 68]
25 | 14 nM |  | COc1cc(-c2ccc(C3CCc4ccc([C@@H](CC(=O)O)C5CC5)cc4O3)c(F)c2)ccn1 (mixture of isomers) [Example 96]
26 | 650 nM |  | O=C(O)C[C@H](c1ccc2c(c1)OC(c1ccc(-c3cc(OC(F)(F)F)ccc3F)cc1)CC2)C1CC1 (stereo partly shown) [Example 76]
27 | 3.3 nM |  | COc1ccc(F)c(-c2ccc([C@@H]3CCc4ccc([C@H](C5CC5)[C@H](C)C(=O)O)cc4O3)cc2)c1 (single isomer, unassigned) [Example 63]
28 | 22 nM |  | COc1ccc(F)c(-c2ccc(C3CCc4ccc(C(C5CCC5)C(C)C(=O)O)cc4O3)cc2)c1 (single isomer, unassigned) [Example 153]
29 | 9 nM |  | COc1ccc(F)c(-c2ccc(C3CCc4ccc(C(C)C(C)C(=O)O)cc4O3)cc2)c1 (single isomer, unassigned) [Example 147a]
30 |  | 1.6 nM | COc1ccc(F)c(-c2ccc(C3COc4ccc([C@H](C5CC5)[C@H](C)C(=O)O)c(F)c4O3)cc2)c1 (stereo partly shown) [Example 184]
31 | 363 nM |  | COc1cncc(-c2ccc(C3CCc4ccc([C@@H](CC(=O)O)C5CC5)cc4O3)c(F)c2)c1 (mixture of isomers) [Example 86]
32 | 354 nM |  | COc1ccc(F)c(-c2ccc(C3CCc4ccc(C(C)CC(=O)O)cc4O3)cc2)c1 (single isomer, unassigned) [Example 141]
33 | 10.6 nM |  | COc1cccc(-c2ccc(C3CCc4ccc([C@@H](CC(=O)O)C5CC5)cc4O3)c(F)c2)c1 (mixture of isomers) [Example 90]
34 | 165 nM |  | CSc1cccc(-c2ccc(C3CCc4ccc([C@@H](CC(=O)O)C5CC5)cc4O3)cc2)c1 (stereo partly shown) [Example 81]
35 | 11 nM |  | COc1cc(-c2cnc(C3CCc4ccc([C@H](C5CC5)[C@H](C)C(=O)O)cc4O3)c(F)c2)ccn1 (mixture of isomers) [Example 121]
36 |  | 1280 nM | C[C@H](C(=O)O)[C@H](c1ccc2c(c1)OC(C1CN(Cc3cc(C(F)(F)F)ccc3C(F)(F)F)C1)CO2)C1CC1 (single isomer, unassigned) [Example 187]
37 | 11 nM |  | COc1cc(-c2ccc(C3CCc4ccc([C@@H](CC(=O)O)C5CC5)cc4O3)cc2)c(F)cn1 (stereo partly shown) [Example 71]
38 | 88 nM |  | COc1ccc(F)c(-c2ccc(C3CCc4ccc([C@@H](CC(=O)O)C5CC5)cc4O3)cn2)c1 (single isomer, unassigned) [Example 122a]

Row | Structure (SMILES) | EC50 [1] | EC50 [2]
39 | COc1ccc(F)c(-c2ccc(C3CCc4ccc([C@@H](CC(=O)O)C5CC5)cc4O3)cc2)c1 (stereo partly drawn) [Example 60, (3S)-3-cyclopropyl-3-(2-(2′-fluoro-5′-methoxy-[1,1′-biphenyl]-4-yl)chroman-7-yl)propanoic acid] | 25 nM | 
40 | COc1cc(-c2ccc(C3CCc4ccc([C@H](C5CC5)[C@H](C)C(=O)O)cc4O3)c(F)c2)c(F)cn1 (single isomer, unassigned) [Example 109b] | 1.2 nM | 
41 | COc1cc(-c2ccc(C3CCc4ccc([C@H](C5CC5)[C@H](C)C(=O)O)cc4O3)cc2)c(F)cn1 (single isomer, unassigned) [Example 117a] | 0.89 nM | 
42 | COc1ccc(F)c(-c2ccc(C3CCc4ccc(C(CC(=O)O)C5CC5)cc4O3)cc2C2=CCCC2(C)C)c1 (single isomer, unassigned) [Example 101c] | 58 nM | 
43 | COc1ccc(F)c(-c2ccc(C3CCc4ccc(C(CC(=O)O)C5CC5)cc4O3)cc2C2=CCCC2(C)C)c1 (single isomer, unassigned) [Example 101b] | 704 nM | 
44 | COc1cc(-c2ccc(C3CCc4ccc([C@H](C5CC5)[C@H](C)C(=O)O)cc4O3)cc2)ccn1 (single isomer, unassigned) [Example 118a] | 1.6 nM | 
45 | COc1ccc(F)c(-c2ccc([C@H]3CCc4ccc([C@H](C5CC5)[C@H](C)C(=O)O)cc4O3)cc2)c1 (single isomer, unassigned) [Example 64] | 1.1 nM | 
46 | COc1ccc(F)c(-c2ccc(C3CCc4ccc([C@H](C5CC5)[C@@H](C)C(=O)O)cc4O3)nc2)c1 (single isomer, unassigned) [Example 97d] | 43 nM | 
47 | COc1ccc(F)c(-c2ccc(C3CCc4ccc([C@@H](CC(=O)O)C5CC5)cc4O3)cc2)c1 (single isomer, unassigned) [Example 61] | 36 nM | 
48 | COc1cc(-c2cnc(C3CCc4ccc([C@H](C5CC5)[C@H](C)C(=O)O)cc4O3)c(F)c2)c(F)cn1 (single isomer, unassigned) [Example 110b] | 1.6 nM | 
49 | COc1cc(-c2ccc(C3CCc4ccc([C@H](C5CC5)[C@H](C)C(=O)O)cc4O3)c(F)c2)c(F)cn1 (single isomer, unassigned) [Example 109a] | 0.17 nM | 
